# From patent publication US20240116921A1, “LACTAM (HETERO)[…] DERIVATIVES AS INHIBITORS OF ERBB2” (EnLiven Therapeutics, Inc., priority 2020, published 2024)
# What was measured:
# [1] = biological target: T1, phosphorylated EGFR (pEGFR) (Homo sapiens, UniProt P00533); test: Detection of phosphorylated EGFR (pEGFR) in EGF-stimulated A431 cells; format: cell-based; settings: A431 cells (10% FBS), 4 hours incubation, EGF 30 ng/mL 10 minutes, AlphaLISA
# T1 construct: performed to measure phosphorylated EGFR levels using A431 cells (10% FBS); endogenous in cells; host or cells: A431
# Summary of the method: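 AlphaLISA read-out of EGFR phosphorylation after a 10-min EGF pulse (30 ng/mL final). A431 cells (10% FBS) had been exposed to compound for 4 h at 37 °C. IC50 was fitted from % inhibition normalised to DMSO and staurosporine control lysates.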
# [2] = biological target: Ba/F3 ERBB2 A775_G776insYVMA (Homo sapiens, UniProt P04626, DUP772-775, cells depend on it); test: Cell viability assay, Ba/F3 ERBB2 A775_G776insYVMA; format: cell-based, mouse; settings: Ba/F3 ERBB2 YVMA cells, cell viability, 72 hours, CellTiter Glo; Table B5; read-out: Ba/F3 ERBB2 YVMA, IC50
# Summary of the method: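 Viability after 72 h compound treatment (37 °C, 5% CO2) was quantified by CellTiter-Glo luminescence of intracellular ATP, with sigmoidal dose-response fitting. Cells were retrovirally engineered Ba/F3 lines whose growth depends on the mutant human ERBB2 in place of IL-3, plated at 3000 per well.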
# [3] = biological target: T2, phosphorylated ERBB2 (pERBB2) (Homo sapiens, UniProt P04626); test: Detection of phosphorylated ERBB2 (pERBB2) by ELISA in BT-474 cells; format: cell-based; settings: four hours incubation
# T2 construct: endogenous in cells; host or cells: BT-474
# Summary of the method: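 Phospho-ERBB2 in lysates was quantified by sandwich ELISA (A450, TMB) after 4 h compound exposure at 37 °C of BT-474 cells seeded at 2.0×10^4 per well. Compounds tested at 10 µM to 0.01 nM final in four-fold steps; activity normalized to DMSO (0.1%) high and cell-free low controls.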
# T2 sequence (P04626 23-1255): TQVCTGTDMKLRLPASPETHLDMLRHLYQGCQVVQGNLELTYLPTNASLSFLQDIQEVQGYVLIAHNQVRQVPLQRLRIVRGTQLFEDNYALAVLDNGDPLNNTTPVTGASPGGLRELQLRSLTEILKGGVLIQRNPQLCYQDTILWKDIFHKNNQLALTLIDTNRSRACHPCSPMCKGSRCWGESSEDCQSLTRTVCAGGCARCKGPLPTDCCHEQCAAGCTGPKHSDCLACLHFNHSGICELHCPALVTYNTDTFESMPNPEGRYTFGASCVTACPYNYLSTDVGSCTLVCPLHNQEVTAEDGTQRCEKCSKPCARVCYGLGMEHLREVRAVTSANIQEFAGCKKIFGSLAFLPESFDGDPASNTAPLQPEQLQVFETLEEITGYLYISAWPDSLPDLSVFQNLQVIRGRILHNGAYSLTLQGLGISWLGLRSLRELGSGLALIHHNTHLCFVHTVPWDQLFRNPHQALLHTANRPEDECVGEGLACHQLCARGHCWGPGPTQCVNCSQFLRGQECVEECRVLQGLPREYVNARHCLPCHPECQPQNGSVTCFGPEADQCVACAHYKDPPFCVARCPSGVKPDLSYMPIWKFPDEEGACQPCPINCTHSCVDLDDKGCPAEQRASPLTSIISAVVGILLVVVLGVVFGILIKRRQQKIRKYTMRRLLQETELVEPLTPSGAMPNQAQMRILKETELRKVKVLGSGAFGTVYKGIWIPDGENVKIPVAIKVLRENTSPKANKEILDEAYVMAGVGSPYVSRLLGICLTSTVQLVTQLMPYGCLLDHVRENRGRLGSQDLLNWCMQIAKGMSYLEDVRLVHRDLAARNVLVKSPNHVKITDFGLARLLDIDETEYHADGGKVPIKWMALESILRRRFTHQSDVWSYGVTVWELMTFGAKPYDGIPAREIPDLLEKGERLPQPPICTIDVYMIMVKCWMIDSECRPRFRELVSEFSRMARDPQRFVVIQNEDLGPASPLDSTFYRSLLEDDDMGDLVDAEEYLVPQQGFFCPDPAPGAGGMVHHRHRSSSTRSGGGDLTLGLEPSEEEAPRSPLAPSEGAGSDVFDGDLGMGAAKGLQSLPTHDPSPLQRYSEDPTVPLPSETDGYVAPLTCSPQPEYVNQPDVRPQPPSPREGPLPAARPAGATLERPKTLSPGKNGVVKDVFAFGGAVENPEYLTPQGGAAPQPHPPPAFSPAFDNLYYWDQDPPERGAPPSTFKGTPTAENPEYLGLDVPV
# T1 sequence (P00533 25-1210): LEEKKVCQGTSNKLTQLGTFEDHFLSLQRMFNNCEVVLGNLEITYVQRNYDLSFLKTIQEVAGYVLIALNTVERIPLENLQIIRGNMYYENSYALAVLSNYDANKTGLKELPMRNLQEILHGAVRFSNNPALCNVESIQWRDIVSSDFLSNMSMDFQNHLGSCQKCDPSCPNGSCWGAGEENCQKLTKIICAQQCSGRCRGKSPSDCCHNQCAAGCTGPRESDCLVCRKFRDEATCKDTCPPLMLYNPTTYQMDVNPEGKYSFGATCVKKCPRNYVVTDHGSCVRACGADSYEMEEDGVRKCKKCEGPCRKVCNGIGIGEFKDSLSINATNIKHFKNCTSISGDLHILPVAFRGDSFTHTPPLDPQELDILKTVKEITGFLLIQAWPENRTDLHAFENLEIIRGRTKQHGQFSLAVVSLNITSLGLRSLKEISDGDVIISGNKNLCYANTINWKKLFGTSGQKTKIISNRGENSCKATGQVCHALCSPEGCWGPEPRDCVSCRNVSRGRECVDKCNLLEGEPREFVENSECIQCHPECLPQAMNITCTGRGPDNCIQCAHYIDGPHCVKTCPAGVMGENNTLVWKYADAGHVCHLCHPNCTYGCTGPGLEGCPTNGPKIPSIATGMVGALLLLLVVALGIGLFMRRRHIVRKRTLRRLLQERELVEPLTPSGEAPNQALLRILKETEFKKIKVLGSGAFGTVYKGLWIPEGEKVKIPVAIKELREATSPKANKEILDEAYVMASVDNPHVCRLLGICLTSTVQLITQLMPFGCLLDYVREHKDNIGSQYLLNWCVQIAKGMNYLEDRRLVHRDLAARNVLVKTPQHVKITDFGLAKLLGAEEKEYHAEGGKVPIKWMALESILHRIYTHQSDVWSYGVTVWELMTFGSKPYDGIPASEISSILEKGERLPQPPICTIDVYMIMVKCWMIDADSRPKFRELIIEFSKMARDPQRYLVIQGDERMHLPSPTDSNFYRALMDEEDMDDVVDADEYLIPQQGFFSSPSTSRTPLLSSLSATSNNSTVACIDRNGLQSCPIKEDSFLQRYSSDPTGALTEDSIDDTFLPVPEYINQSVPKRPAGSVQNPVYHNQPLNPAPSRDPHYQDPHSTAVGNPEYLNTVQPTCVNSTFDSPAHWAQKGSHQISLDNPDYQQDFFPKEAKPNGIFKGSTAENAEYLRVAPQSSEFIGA
# Ba/F3 ERBB2 A775_G776insYVMA, sequence (P04626 with tags, fused parts or gaps DUP772-775): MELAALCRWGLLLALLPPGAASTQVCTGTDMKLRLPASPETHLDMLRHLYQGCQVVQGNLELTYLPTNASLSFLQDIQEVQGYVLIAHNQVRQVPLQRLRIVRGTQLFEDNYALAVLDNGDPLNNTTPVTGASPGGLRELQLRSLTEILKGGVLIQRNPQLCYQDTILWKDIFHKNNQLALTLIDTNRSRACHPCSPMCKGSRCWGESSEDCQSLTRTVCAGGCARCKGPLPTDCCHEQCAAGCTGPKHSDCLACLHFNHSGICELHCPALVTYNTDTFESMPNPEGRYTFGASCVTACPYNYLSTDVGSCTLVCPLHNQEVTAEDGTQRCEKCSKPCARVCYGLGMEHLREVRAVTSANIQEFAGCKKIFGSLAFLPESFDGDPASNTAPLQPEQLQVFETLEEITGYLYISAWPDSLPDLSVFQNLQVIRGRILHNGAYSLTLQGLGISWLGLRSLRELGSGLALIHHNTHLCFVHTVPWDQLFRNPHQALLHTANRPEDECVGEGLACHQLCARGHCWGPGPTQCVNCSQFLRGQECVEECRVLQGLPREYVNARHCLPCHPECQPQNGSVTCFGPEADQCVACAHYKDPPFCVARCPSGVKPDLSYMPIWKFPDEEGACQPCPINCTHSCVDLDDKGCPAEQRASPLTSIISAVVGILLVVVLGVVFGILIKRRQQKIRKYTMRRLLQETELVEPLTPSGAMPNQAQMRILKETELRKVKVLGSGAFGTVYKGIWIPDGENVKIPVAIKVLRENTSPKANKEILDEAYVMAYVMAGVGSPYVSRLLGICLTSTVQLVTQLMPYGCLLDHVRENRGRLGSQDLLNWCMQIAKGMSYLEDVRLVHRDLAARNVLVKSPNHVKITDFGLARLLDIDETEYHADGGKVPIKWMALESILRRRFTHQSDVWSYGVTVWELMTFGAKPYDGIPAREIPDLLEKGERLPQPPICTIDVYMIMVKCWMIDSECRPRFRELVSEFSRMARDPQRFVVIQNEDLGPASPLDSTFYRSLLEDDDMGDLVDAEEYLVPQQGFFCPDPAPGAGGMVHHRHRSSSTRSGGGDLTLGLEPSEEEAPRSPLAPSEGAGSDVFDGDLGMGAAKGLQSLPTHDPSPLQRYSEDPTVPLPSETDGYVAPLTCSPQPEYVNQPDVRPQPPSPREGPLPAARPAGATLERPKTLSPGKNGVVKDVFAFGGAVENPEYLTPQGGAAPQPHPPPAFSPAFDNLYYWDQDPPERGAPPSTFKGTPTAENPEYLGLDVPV
smiles,measurement,setting,value
"C=C1CCN(c2ccc3ncnc(Nc4ccc(Oc5ccc6c(c5)ncn6C)c(C)c4)c3c2)C1=O [Compound 27, 1-[4-({3-methyl-4-[(1-methyl-1,3-benzodiazol-5-yl)oxy]phenyl}amino)quinazolin-6-yl]-3-methylidenepyrrolidin-2-one]",IC50,[1],0.604 µM
same,GI50,[2],0.0113 µM
same,IC50,[3],0.0171 µM
"C=C1CCN(c2cc3c(Nc4ccc(Oc5ccn6ncnc6c5)c(C)c4)ncnc3cn2)C1=O [Compound 28, 1-(4-((4-([1,2,4]triazolo[1,5-a]pyridin-7-yloxy)-3-methylphenyl)amino)pyrido[3,4-d]pyrimidin-6-yl)-3-methylenepyrrolidin-2-one]",IC50,[1],0.355 µM
same,GI50,[2],0.00532 µM
same,IC50,[3],0.00777 µM
"C=C1C(=O)N(c2ccc3ncnc(Nc4ccc(Oc5ccn6ncnc6c5)c(C)c4)c3c2)CC1CO (stereo not drawn) [Compound 29, 4-(hydroxymethyl)-1-{4-[(3-methyl-4-{[1,2,4]triazolo[1,5-a]pyridin-7-yloxy}phenyl)amino]quinazolin-6-yl}-3-methylidenepyrrolidin-2-one]",IC50,[1],0.405 µM
same,GI50,[2],0.0315 µM
same,IC50,[3],0.00586 µM
"C=C1C(=O)N(c2ccc3ncnc(Nc4ccc(Oc5ccn6ncnc6c5)c(C)c4)c3c2)CC1CN(C)C (stereo not drawn) [Compound 30, 4-[(dimethylamino)methyl]-1-{4-[(3-methyl-4-{[1,2,4]triazolo [1,5-a]pyridin-7-yloxy}phenyl)amino]quinazolin-6-yl}-3-methylidenepyrrolidin-2-one; formic acid]",IC50,[1],0.0684 µM
same,GI50,[2],0.0174 µM
same,IC50,[3],0.0123 µM
C=C1C(=O)N(c2cc3c(Nc4ccc(Oc5ccn6ncnc6c5)c(C)c4)ncnc3cn2)C[C@@H]1C [Compound 31],IC50,[1],0.117 µM
same,GI50,[2],0.00378 µM
same,IC50,[3],0.0159 µM
"C=C1C(=O)N(c2cc3c(Nc4ccc(Oc5ccn6ncnc6c5)c(C)c4)ncnc3cn2)C[C@H]1C [Compound 32, (4S)-4-methyl-1-{4-[(3-methyl-4-{[1,2,4]triazolo[1,5-a]pyridin-7-yloxy}phenyl)amino]pyrido[3,4-d]pyrimidin-6-yl}-3-methylidenepyrrolidin-2-one]",IC50,[1],8.18 µM
same,GI50,[2],0.134 µM
same,IC50,[3],0.0721 µM
"Cc1cc(Nc2ncnc3ccc(N4CC/C(=C\CN(C)C)C4=O)cc23)ccc1Oc1ccc2c(c1)ncn2C [Compound 33, (E)-3-(2-(dimethylamino)ethylidene)-1-(4-((3-methyl-4-((1-methyl-1H-benzo[d]imidazol-5-yl)oxy)phenyl)amino)quinazolin-6-yl)pyrrolidin-2-one]",IC50,[1],1.14 µM
same,GI50,[2],0.0158 µM
same,IC50,[3],0.0185 µM
"C=C1C(=O)N(c2ccc3ncnc(Nc4ccc(Cc5ccn6ncnc6c5)c(C)c4)c3c2)C[C@H]1C [Compound 36, (S)-1-(4-((4-([1,2,4]triazolo[1,5-a]pyridin-7-ylmethyl)-3-methylphenyl)amino)quinazolin-6-yl)-4-methyl-3-methylenepyrrolidin-2-one]",IC50,[1],2.33 µM
same,GI50,[2],0.0805 µM
same,IC50,[3],0.0409 µM
"C=C1C(=O)N(c2ccc3ncnc(Nc4ccc(Oc5ccc6c(c5)ncn6C)c(C)c4)c3c2)C[C@H]1C [Compound 37, (S)-4-methyl-1-(4-((3-methyl-4-((1-methyl-1H-benzo [d]imidazol-5-yl)oxy)phenyl)amino)quinazolin-6-yl)-3-methylenepyrrolidin-2-one]",IC50,[1],1.02 µM
same,GI50,[2],0.0174 µM
same,IC50,[3],0.0269 µM
"Cc1cc(Nc2ncnc3ccc(N4CC/C(=C\CN(C)C)C4=O)nc23)ccc1Oc1ccc2c(c1)ncn2C [Compound 38, (3E)-3-[2-(dimethylamino)ethylidene]-1-[4-({3-methyl-4-[(1-methyl-1,3-benzodiazol-5-yl)oxy]phenyl}amino)pyrido[3,2-d]pyrimidin-6-yl]pyrrolidin-2-one]",IC50,[1],0.407 µM
same,GI50,[2],0.002 µM
same,IC50,[3],0.0293 µM
"C=C1CCN(c2cc3c(Nc4ccc(Oc5ccc6c(c5)ncn6C)c(C)c4)ncnc3cn2)C1=O [Compound 39, 1-(4-((3-methyl-4-((1-methyl-1H-benzo[d]imidazol-5-yl)oxy)phenyl)amino)pyrido[3,4-d]pyrimidin-6-yl)-3-methylenepyrrolidin-2-one]",IC50,[1],0.497 µM
same,GI50,[2],0.0146 µM
same,IC50,[3],0.0362 µM
"Cc1cc(Nc2ncnc3ccc(N4CC/C(=C\CCN5CCN(C)CC5)C4=O)cc23)ccc1Oc1ccn2ncnc2c1 [Compound 40, (3E)-1-{4-[(3-methyl-4-{[1,2,4]triazolo[1,5-a]pyridin-7-yloxy}phenyl)amino]quinazolin-6-yl}-3-[3-(4-methylpiperazin-1-yl)propylidene]pyrrolidin-2-one]",IC50,[1],> 10 µM
same,GI50,[2],> 0.5 µM
same,IC50,[3],0.0307 µM
"C=C1C(=O)N(c2ccc3ncnc(Nc4ccc(Oc5ccc6c(c5)ncn6C)c(C)c4)c3c2)C[C@@H]1C [Compound 41, (R)-4-methyl-1-(4-((3-methyl-4-((1-methyl-1H-benzo[d]imidazol-5-yl)oxy)phenyl)amino)quinazolin-6-yl)-3-methylenepyrrolidin-2-one]",IC50,[1],4.49 µM
same,GI50,[2],0.029 µM
same,IC50,[3],0.029 µM
"Cc1cc(Nc2ncnc3ccc(N4CC/C(=C\CCN(C)C)C4=O)cc23)ccc1Oc1ccc2c(c1)ncn2C [Compound 44, (3E)-3-[3-(dimethylamino)propylidene]-1-[4-({3-methyl-4-[(1-methyl-1,3-benzodiazol-5-yl)oxy]phenyl}amino)quinazolin-6-yl]pyrrolidin-2-one]",IC50,[1],1.94 µM
same,GI50,[2],0.0145 µM
same,IC50,[3],0.0262 µM
"Cc1cc(Nc2ncnc3cnc(N4CC/C(=C\CN(C)C)C4=O)cc23)ccc1Oc1ccc2c(c1)ncn2C [Compound 45, (E)-3-(2-(dimethylamino)ethylidene)-1-(4-((3-methyl-4-((1-methyl-1H-benzo[d]imidazol-5-yl)oxy)phenyl)amino)pyrido[3,4-d]pyrimidin-6-yl)pyrrolidin-2-one]",IC50,[1],0.67 µM
same,GI50,[2],0.00179 µM
same,IC50,[3],0.0226 µM
"C=C1CCN(c2ccc3ncnc(Nc4ccc(Oc5ccc6nccnc6c5)c(C)c4)c3c2)C1=O [Compound 46, 1-(4-((3-methyl-4-(quinoxalin-6-yloxy)phenyl)amino)quinazolin-6-yl)-3-methylenepyrrolidin-2-one]",IC50,[1],0.759 µM
same,GI50,[2],0.0539 µM
same,IC50,[3],0.0651 µM
"Cc1cc(Nc2ncnc3ccc(N4CC/C(=C\CN(C)C)C4=O)nc23)ccc1Oc1ccn2ncnc2c1 [Compound 47, (E)-1-(4-((4-([1,2,4]triazolo[1,5-a]pyridin-7-yloxy)-3-methylphenyl)amino)pyrido[3,2-d]pyrimidin-6-yl)-3-(2-(dimethylamino)ethylidene)pyrrolidin-2-one]",IC50,[1],2.22 µM
same,GI50,[2],0.00408 µM
same,IC50,[3],0.0289 µM
"Cc1cc(Nc2ncnc3ccc(N4CC/C(=C\CCN(C)C)C4=O)nc23)ccc1Oc1ccn2ncnc2c1 [Compound 48, (3E)-3-[3-(dimethylamino)propylidene]-1-{4-[(3-methyl-4-{[1,2,4]triazolo[1,5-a]pyridin-7-yloxy}phenyl)amino]pyrido[3,2-d]pyrimidin-6-yl}pyrrolidin-2-one]",IC50,[1],0.0635 µM
same,GI50,[2],0.000837 µM
same,IC50,[3],0.0124 µM
"Cc1ccc(Oc2ccc(Nc3ncnc4ccc(N5CC/C(=C\CN(C)C)C5=O)nc34)cc2C)cn1 [Compound 49, (E)-3-(2-(dimethylamino)ethylidene)-1-(4-((3-methyl-4-((6-methylpyridin-3-yl)oxy)phenyl)amino)pyrido[3,2-d]pyrimidin-6-yl)pyrrolidin-2-one]",IC50,[1],0.173 µM
same,GI50,[2],0.000999 µM
same,IC50,[3],0.0139 µM
"C=C1CCN(c2ccc3ncnc(Nc4ccc(Oc5ccc6cncnc6c5)c(C)c4)c3c2)C1=O [Compound 50, 1-(4-{[3-methyl-4-(quinazolin-7-yloxy)phenyl]amino}quinazolin-6-yl)-3-methylidenepyrrolidin-2-one]",IC50,[1],2.15 µM
same,GI50,[2],0.0464 µM
same,IC50,[3],0.0801 µM
"C=C1CCN(c2ccc3ncnc(Nc4ccc(Cc5ccc6c(c5)ncn6C)c(C)c4)c3c2)C1=O [Compound 52, 1-[4-({3-methyl-4-[(1-methyl-1,3-benzodiazol-5-yl)methyl]phenyl}amino)quinazolin-6-yl]-3-methylidenepyrrolidin-2-one]",IC50,[1],> 10 µM
same,GI50,[2],0.0219 µM
same,IC50,[3],0.0812 µM
"Cc1cc(Nc2ncnc3ccc(N4CC/C(=C\CCN(C)C)C4=O)nc23)ccc1Oc1ccc2c(c1)ncn2C [Compound 53, (3E)-3-[3-(dimethylamino)propylidene]-1-[4-({3-methyl-4-[(1-methyl-1,3-benzodiazol-5-yl)oxy]phenyl}amino)pyrido[3,2-d]pyrimidin-6-yl]pyrrolidin-2-one]",IC50,[1],0.076 µM
same,GI50,[2],0.00205 µM
same,IC50,[3],0.0356 µM
"Cc1cc(Nc2ncnc3ccc(N4CC/C(=C\CN(C)C)C4=O)nc23)ccc1Cc1ccc2c(c1)ncn2C [Compound 54, (3E)-3-[2-(dimethylamino)ethylidene]-1-[4-({3-methyl-4-[(1-methyl-1,3-benzodiazol-5-yl)methyl]phenyl}amino)pyrido[3,2-d]pyrimidin-6-yl]pyrrolidin-2-one]",IC50,[1],1.54 µM
same,GI50,[2],0.00537 µM
same,IC50,[3],0.042 µM
